Tested on: gIII under o-RBS variants
Test: Two-stage selection of o-RBS/o-antiRBS pairs (phage titers post infection)
Settings: seven o-RBS variants with o-antiRBSlib SPs

## o-RBSH3: orthogonal ribosome binding site, SEQ ID NO: 7 (DNA UUUCCAAUAUACAGAUCUAUG; listed as RNA, chemistry not fully specified)
  propagation (phage titers) post infection: highest titers

Source: patent US20240344062A1, “RIBOSOMAL RNA (rRNA) VARIANTS […] PROTEIN PRODUCTION CAPABILITIES” (THE BROAD INSTITUTE, INC., priority 2021, published 2024)
